Values quoted from earlier work, collected in patent US11147307B2, “Flavor capsules for smoking articles” (PHILIP MORRIS PRODUCTS S.A., priority 2015, dated 2021).

solubility in water: about 200 g/100 ml
Compound: OC[C@@H](O)[C@@H](O[C@H]1O[C@H](CO)[C@@H](O)[C@H](O)[C@H]1O)[C@H](O)[C@@H](O)CO [maltitol]
